{
  "source": "ChEMBL document CHEMBL1143207",
  "about": "“New 7,8-benzoflavanones as potent aromatase inhibitors: synthesis and biological evaluation” (Bioorg Med Chem, 2008)",
  "data": [
    {"molecular_target": "T1, Aromatase (Homo sapiens, UniProt P11511)", "T1 sequence (P11511 whole entry)": "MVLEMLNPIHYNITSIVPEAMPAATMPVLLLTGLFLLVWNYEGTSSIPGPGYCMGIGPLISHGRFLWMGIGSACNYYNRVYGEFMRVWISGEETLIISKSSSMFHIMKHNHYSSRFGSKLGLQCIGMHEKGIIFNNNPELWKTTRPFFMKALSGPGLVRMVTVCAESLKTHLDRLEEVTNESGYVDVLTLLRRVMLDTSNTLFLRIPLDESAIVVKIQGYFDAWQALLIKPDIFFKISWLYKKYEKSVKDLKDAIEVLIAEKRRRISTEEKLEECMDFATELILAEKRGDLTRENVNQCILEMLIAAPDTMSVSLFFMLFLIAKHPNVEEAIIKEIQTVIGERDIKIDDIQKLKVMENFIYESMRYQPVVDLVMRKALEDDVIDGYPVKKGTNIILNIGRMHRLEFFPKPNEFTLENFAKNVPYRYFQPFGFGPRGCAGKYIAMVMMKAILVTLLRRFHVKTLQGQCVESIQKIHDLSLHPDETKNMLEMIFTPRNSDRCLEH", "format": "microsomes, Placenta, Microsomes", "units": {"IC50": "nM"}, "description": "Inhibition of human aromatase in placental microsomes", "values": [
      {"smiles": "N#Cc1ccc(C2CC(=O)c3ccc4ccccc4c3O2)cc1", "note": "(configuration not stated)", "IC50": 1540},
      {"smiles": "O=C1CC(c2cccc(O)c2)Oc2cc(O)ccc21", "note": "(configuration not stated)", "IC50": 3400},
      {"smiles": "O=C1CC(c2ccc(O)cc2)Oc2c1ccc1ccccc21", "note": "(configuration not stated)", "IC50": 630},
      {"smiles": "N#Cc1cccc(C2CC(=O)c3ccc4ccccc4c3O2)c1", "note": "(configuration not stated)", "IC50": 1370},
      {"smiles": "O=C1CC(c2ccccc2)Oc2c1ccc1ccccc21", "note": "(configuration not stated)", "IC50": 4300},
      {"smiles": "O=C1CC(c2cccc(O)c2)Oc2c1ccc1ccccc21", "note": "(configuration not stated)", "IC50": 610},
      {"smiles": "O=C1C[C@@H](c2ccc(O)cc2)Oc2cc(O)ccc21", "note": "[LIQUIRTIGENIN]", "IC50": 2100}
    ]}
  ]
}
